These are literature values, as cited in article PMC9774438, “Effects of Synthetic Short Cationic Antimicrobial Peptides on the Catalytic Activity of Myeloperoxidase, Reducing Its Oxidative Capacity” (Antioxidants, 2022).

Where two headings read alike, the source gives them in different places. Bounds are passed on as bounds.

The series relates to MPO. The note with it: cited from earlier work; for peroxidase substrate behaviour of free amino acid: literature statement. An excerpt:
Free tyrosine is known to be a peroxidase substrate, reacting rapidly with both Compounds I and II. […] MPO-catalyzed oxidation of tyrosine occurs in the absence as well as presence of chloride, which is accompanied by hastened HOCl production. […] In addition to cysteine, pept_1545 contains tryptophan, another redox active amino acid. […] Fluorescence measurements (λex = 290 nm, λem = 310–450 nm) were ...

As to `N[C@@H](CS)C(=O)O` [cysteine], the “peroxidase substrate behaviour of free amino acid” value was “poor peroxidase substrate”. In addition, where the note is “free cysteine, ref [50]”, the “bimolecular rate constant for reaction with Compound I” value was 4100 M⁻¹ s⁻¹ and the “bimolecular rate constant for reaction with Compound II” value was less than 10 M⁻¹ s⁻¹.
On to `N[C@@H](Cc1c[nH]c2ccccc12)C(=O)O` [tryptophan], for which the “peroxidase substrate behaviour of free amino acid” value was “poor peroxidase substrate”.
Take `N[C@@H](Cc1ccc(O)cc1)C(=O)O` [tyrosine]: the “peroxidase substrate behaviour of free amino acid” value is “accelerates MPO turnover”. For the setting “free tyrosine, ref [42]”, the “bimolecular rate constant for reaction with Compound I” value was 770000 M⁻¹ s⁻¹ and the “bimolecular rate constant for reaction with Compound II” value is 16000 M⁻¹ s⁻¹.
